Experimental data reported in US20220338473A1, “USE OF BENZYL ALCOHOL AS A HERBICIDE” (INNOVI, priority 2019, published 2022).

Legend:
Experiment in all cases: Preventative activity (anti-germination), seeds on agar in Petri dish
Format in all cases: in vivo
Conditions in all cases: 0.35 g sprayed (benzyl alcohol pure, 700 L/Ha; glyphosate diluted at 0.5%)
[1] = system: Barley seeds
Description: (§1) The assays were carried out on seeds sown on a Petri dish with respectively a control mode, an assay with benzyl alcohol and an assay with glyphosate herbicide (Gallup® super 360, Barclay).
(§2) The application of the product is carried out with a trigger spray bottle which makes it possible to spray 0.35 g of product per spraying, as microdroplets.
(§3) Seeds are placed on an agar gel in Petri dishes. 16 barley seeds, 24 rapeseed seeds, 18 wheat seeds, 10 maize seeds, 10 soybean seeds are positioned for each test.
(§4) The seeds are sprinkled either with 0.35 g water (equivalent 700 L/Ha) including 0.35 g pure benzyl alcohol (PanReac AppliChem—ITW Reagents) (equivalent 700 L/Ha pure benzyl alcohol), or with 0.35 g water for the control, or with 0.35 g glyphosate diluted at 0.5% for the glyphosate test.
(§5) The plants are observed at 0 and 11 days. The percentage of germination is the percentage of germinated seeds evaluated after 11 days.

[2] = system: Maize seeds
Description: as §1, §2, §3, §4, §5

[3] = system: Rapeseed seeds
Description: as §1, §2, §3, §4, §5

[4] = system: Soybean seeds
Description: as §1, §2, §3, §4, §5

[5] = system: Wheat seeds
Description: as §1, §2, §3, §4, §5

[6] = system: Dandelion seeds

O=C(O)CNCP(=O)(O)O [Glyphosate, glyphosate, reference compound]
Percentage of germination at 11 days [1]: 100% | Percentage of germination at 11 days [2]: 100% | Percentage of germination at 11 days [3]: 100% | Percentage of germination at 11 days [4]: 100% | Percentage of germination at 11 days [5]: 100% | Percentage of germination at 11 days [6]: 83%
